The structures appear in SMILES notation.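 Step 1: Grow cells in 96-well plates. Step 2: Expose to compound for 48 hours at 5 concentrations. Step 3: Interpolate endpoints linearly; if unreached, use highest concentration. Here, GI50 denotes the concentration required for 50% inhibition of growth. The concentration for full growth arrest is given as TGI.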

Common to all, as to assay: NCI-60 cell line screen, 48 h
For assay [1], the system named is TK-10 renal.
Assay [2] has as its system SW-620 colon.
Assay [3] has as its system A549 NSCLC.
Assay [4] deals with HL-60(TB) leukemia.
Assay [5] has as its system NCI-H460 lung.
The test system of assay [6] is MOLT-4 leukemia.
Assay [7] has as its system HOP-62 NSCLC.
The subject of assay [8] is MCF7 breast.
Assay [9] has as its system PC-3 prostate.
For assay [10], the system named is HOP-92 NSCLC.
For assay [11], the system named is COLO 205 colon.
Assay [12] has as its system MDA-MB-435.
Assay [13] deals with SF-268 CNS.
In assay [14] the test system is OVCAR-8 ovarian.
Assay [15] relates to HT29 colon.
For assay [16], the system named is NCI-H522 lung.
Assay [17] has as its system A498 renal.

Turning to `Cc1ccc(O)c(C2=NNC(c3cccc(Cl)c3)C2)c1` (centres undefined), the TGI in assay [1], in assay [2], in assay [3], in assay [4], in assay [5] and in [6] was above 100 µM each time. Further, the TGI was above 100 µM in assay [7]; above 100 µM in assay [8]; above 100 µM in [9]; 81.7 µM in assay [10]; above 100 µM in assay [11]; 44.5 µM in assay [12]. Besides, the TGI was above 100 µM in assay [13], above 100 µM in assay [14], above 100 µM in assay [15] and 53.6 µM in [16].
As to `Nn1c(CCCCCCCCc2n[nH]c(=S)n2N)n[nH]c1=S`, the TGI in [2], in [3], in assay [4], in [5], in assay [6] and in assay [7] was above 100 µM in each case. Further, the TGI in assay [8], in [9], in assay [10], in [11], in assay [12] and in assay [13] was above 100 µM in each case. Moreover, the TGI in assay [14], in assay [15], in assay [16] and in assay [17] was above 100 µM throughout.
Regarding `CC(C)CC1NC(=O)CCC(NC(=O)C(Cc2ccc(O)cc2)NC(=O)OCc2ccccc2)C(=O)NC(Cc2ccccc2)C(=O)NC(Cc2ccccc2)NC1=O` (centres undefined), the TGI in assay [1], in assay [2], in [3], in assay [4], in assay [5] and in assay [6] was above 100 µM throughout. The TGI in [7], in [8], in assay [9], in [10], in assay [11] and in assay [12] was above 100 µM in each case. Also, the TGI in [13], in [14] and in assay [15] was above 100 µM throughout.
Take `CCN1C/C(=C\c2ccc(Cl)cc2)c2[nH]c(=O)c(C#N)c(-c3ccc(Cl)cc3)c2C1`: the TGI in [1], in assay [2], in assay [3], in assay [4], in assay [5] and in assay [6] was above 100 µM each time. In addition, the TGI in assay [7], in assay [8], in [9], in [10], in assay [11] and in assay [12] was above 100 µM throughout. For the same molecule, the TGI in [13], in assay [15] and in assay [17] was above 100 µM in each case.
Turning to `CCCC(C(=O)Nc1cccc2[nH]cnc12)C(=O)OCC` (centres undefined), the TGI in assay [1], in assay [2], in [3], in [4], in assay [5] and in [6] was above 100 µM in each case. For the same molecule, the TGI in assay [7], in [8], in assay [9], in [10], in [12] and in assay [13] was above 100 µM each time. The TGI in assay [14], in assay [15], in [16] and in [17] was above 100 µM in each case.
With `CCOC(=O)c1nc2cc(F)cc(F)c2[nH]c1=O`, the TGI in assay [1], in [2], in [3], in assay [4], in [5] and in [6] was above 100 µM each time. The TGI in [7], in [8], in assay [9], in assay [10], in assay [11] and in [12] was above 100 µM each time. Moreover, the TGI in assay [13], in [14], in assay [15] and in assay [17] was above 100 µM throughout.
For `O=C1NC(N2CCCCC2)=N/C1=C\c1ccco1`, the TGI in assay [1], in assay [2], in [3], in assay [4], in assay [6] and in assay [7] was above 100 µM in each case. In addition, the TGI in assay [8], in assay [9], in assay [10], in [11], in assay [12] and in assay [13] was above 100 µM throughout. Besides, the TGI in [14], in assay [15] and in [16] was above 100 µM each time.
For `Nc1ncc2c(n1)-c1ccccc1OC2N1CCOCC1` (centres undefined), the TGI in assay [1], in [2], in assay [3], in assay [4], in assay [5] and in [6] was above 100 µM throughout. Further, the TGI in assay [7], in assay [8], in assay [9], in assay [10], in [11] and in assay [12] was above 100 µM throughout. The TGI in assay [13], in assay [14], in assay [15] and in assay [16] was above 100 µM in each case.
`COc1cc(-c2ccccc2)cn2c1nc1ccccc12`: the TGI in assay [2] is above 100 µM; in assay [3], 51.4 µM; in [4], 53.2 µM; in assay [5], 49.4 µM; in assay [6], 45.9 µM; in assay [7] it was 43.6 µM. Besides, the TGI in assay [8] turned out to be 35.4 µM; in assay [9], 50.8 µM; in assay [10] it was 32 µM; in assay [11], 39.1 µM; in [12] it was 43.4 µM; in [13], 79.4 µM. Also, the TGI was 64.4 µM in assay [14], 35.5 µM in assay [15] and 40.6 µM in [16].
In the case of `O=Cc1ccc(-c2ccc(S(=O)(=O)O)cc2)o1`, the TGI in [1], in assay [2], in assay [3], in assay [4], in assay [5] and in assay [6] was above 100 µM throughout. The TGI in assay [8], in [9], in assay [11], in assay [12], in assay [13] and in [14] was above 100 µM in each case. Also, the TGI in [15], in assay [16] and in [17] was above 100 µM each time.
`N[C@H]1CCN(c2c(F)cc3c(=O)c(C(=O)O)cn4c3c2Oc2c-4ccc3c2ccc2ccccc23)C1`: the TGI was above 100 µM in assay [2]; above 100 µM in assay [3]; above 85.6 µM in assay [4]; 2.42 µM in [5]; above 100 µM in [6]; above 100 µM in assay [7]. In addition, the TGI was above 100 µM in assay [8]; above 47.3 µM in [9]; above 49.6 µM in assay [10]; above 100 µM in assay [11]; above 39.6 µM in assay [12]; above 100 µM in [14]. Besides, the TGI in assay [15] and in assay [17] was above 100 µM each time. Also, the GI50 in assay [6] is 0.266 µM.
As for `c1cc2c3ccsc3c3sccc3c2s1`, the TGI in [1], in assay [2], in assay [3], in assay [4], in assay [5] and in assay [6] was above 100 µM in each case. Besides, the TGI was 70.5 µM in [7]; above 100 µM in assay [8]; above 100 µM in assay [9]; above 100 µM in assay [10]; above 100 µM in assay [11]; above 100 µM in assay [12]. Besides, the TGI in [13], in assay [14], in assay [15] and in assay [17] was above 100 µM in each case.
Consider `O=c1[nH]c(=O)n(C2CC(O)C(COP(=O)(OCC(Cl)(Cl)Cl)OCC(Cl)(Cl)Cl)O2)cc1F` (centres undefined), for which the TGI in [1] was above 100 µM; in [2] it was above 100 µM; in assay [3], above 100 µM; in assay [4], 51 µM; in assay [5] it was above 100 µM; in assay [6] it was above 100 µM. For the same molecule, the TGI was 1.53 µM in assay [7]; above 100 µM in assay [8]; above 100 µM in assay [9]; above 100 µM in assay [10]; above 100 µM in [11]; above 100 µM in assay [12]. Besides, the TGI was above 100 µM in assay [13], above 100 µM in assay [14], above 100 µM in [15] and above 34.8 µM in assay [16].
For `C=CCN1C(=O)CS/C1=N\NC(=O)CSc1nc2ccccc2c(=O)n1CC`, the TGI was above 100 µM in assay [1]; above 100 µM in assay [2]; above 100 µM in assay [3]; above 100 µM in assay [4]; 44.4 µM in [5]; above 100 µM in assay [6]. Further, the TGI in assay [7], in assay [8], in [9], in assay [11], in assay [12] and in assay [13] was above 100 µM in each case. Moreover, the TGI in assay [14], in assay [15], in assay [16] and in assay [17] was above 100 µM each time.
Take `O=C(CCN1CCCC1)c1ccc(Oc2ccc(F)cc2)cc1`: the TGI in [1] is above 100 µM; in assay [2], above 100 µM; in assay [3] it was above 100 µM; in [4], 37.8 µM; in assay [5], above 100 µM; in assay [6] it was 43.3 µM. For the same molecule, the TGI in assay [7] is above 100 µM; in assay [8] it was 32.3 µM; in assay [9] it was above 100 µM; in assay [10] it was 41.5 µM; in [11] it was 56.7 µM; in assay [12], above 100 µM. In addition, the TGI in assay [13], in assay [14] and in assay [15] was above 100 µM each time.
Turning to `N#Cc1c(N)c2c(c(-c3ccccc3)c1-c1ccccc1)C(=O)N(O)C2=O`, the TGI in assay [1], in assay [2], in assay [3], in assay [4], in assay [5] and in assay [6] was above 100 µM throughout. The TGI was above 100 µM in assay [8]; 48.1 µM in assay [9]; above 100 µM in [10]; 52.2 µM in assay [11]; above 100 µM in assay [12]; above 100 µM in assay [13]. Further, the TGI in assay [14], in [16] and in assay [17] was above 100 µM each time.
Consider `CC(=O)OC(C)c1cc2c(s1)C(=O)c1ccsc1C2=O` (centres undefined), for which the TGI in assay [1] amounted to 2.49 µM; in [2], 0.835 µM; in assay [3], 2.66 µM; in assay [4], 0.0364 µM; in [6] it was 0.684 µM; in assay [7] it was 0.281 µM. Besides, the TGI in [8] amounted to 1.24 µM; in assay [9], 0.201 µM; in assay [10], 1.74 µM; in assay [11], 2.61 µM; in [12], 0.0301 µM; in assay [13] it was 0.812 µM. In addition, the figures for the TGI in assay [14], in assay [16] and in assay [17] were 0.68 µM, 0.354 µM and 3.32 µM, respectively.
As for `Cc1nn(C(=O)c2ccc(Cl)cc2)c2c1C(c1ccc(Cl)cc1)SC(N)=N2` (centres undefined), the TGI in [1], in [2], in [3], in assay [4], in [5] and in assay [6] was above 10 µM each time. Also, the TGI in assay [7], in [8], in assay [9], in assay [10], in assay [11] and in [12] was above 10 µM each time. Besides, the TGI in assay [13], in [14], in [15] and in assay [16] was above 10 µM each time.

The values are drawn from PubChem BioAssay (NCI).
